The stoichiometry N is a count of units in the complex or per binding partner. The term Km denotes the substrate concentration at which the rate is half of its maximum.

Assay [1] concerns the target Firmicutes CAG:176 thiolase (FcTHL) (Firmicutes CAG:176 (uncultured Firmicutes)). Description: crystal structure.
In assay [2] the target is T1, FpGNAT (acyl-CoA N-acetyltransferase from F. prausnitzii) (Faecalibacterium duncaniae, UniProt C7H1G6).
T1 sequence (C7H1G6 1-201): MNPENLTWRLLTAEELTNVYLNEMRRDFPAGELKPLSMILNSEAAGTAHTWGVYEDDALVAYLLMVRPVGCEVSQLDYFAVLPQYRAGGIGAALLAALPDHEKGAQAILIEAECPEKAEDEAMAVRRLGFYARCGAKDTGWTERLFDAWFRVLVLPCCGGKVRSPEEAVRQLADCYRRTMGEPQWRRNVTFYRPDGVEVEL
Briefly: LC-MS/MS end-point acetylation assay. It counts as biochemical. The settings on record: 1 mM 5-ASA.

Assay [3] has as its system FcTHL (Firmicutes CAG:176 thiolase). Description: LC-MS/MS of N-acetyl 5-ASA formed, Michaelis-Menten. The format is biochemical, Firmicutes bacterium CAG:176. The conditions noted are these: 1 mM acetyl-CoA constant; 20 mM HEPES pH 7.5, 50 mM NaCl, 1 mM MgCl2, 1 mM TCEP, 5 uM enzyme, 37 °C.

For “Firmicutes CAG:176 thiolase (FcTHL) (enzyme)”, the stoichiometry N in assay [1] was determined as 4.
With `CC(=O)SCCNC(=O)CCNC(=O)[C@H](O)C(C)(C)COP(=O)(O)OP(=O)(O)OC[C@H]1O[C@@H](n2cnc3c(N)ncnc32)[C@H](O)[C@@H]1OP(=O)(O)O` [acetyl-CoA], the “LC-MS/MS end-point acetylation assay” value in assay [2] (acetyl donor, same) was “convert 5-ASA to N-acetyl-5-ASA in the presence of acetyl-CoA”.
For the compound `Nc1ccc(O)c(C(=O)O)c1` [5-ASA], in assay [2] (1 mM acetyl-CoA, 50 uM enzyme, pH 7.5, 37 °C, 6 h), the “LC-MS/MS end-point acetylation assay” value was “convert 5-ASA to N-acetyl-5-ASA in the presence of acetyl-CoA”. For the same compound, the Km in assay [3] stood at 1880 ± 460 µM.

Values taken from paper PMC10928503 (Nature medicine, 2023).
